Assay results taken from paper PMC9951978, “Comparative Study of Different H2S Donors as Vasodilators and Attenuators of Superoxide-Induced Endothelial Damage” (Antioxidants, 2023).

What was measured:
[1] = Stability at pH 7.4 in PBS in the presence of L-cysteine (50x); format: physicochemical; settings: pH 7.4, 37 °C; for half-life at 100 µM: phosphate buffer (PBS) with L-cysteine, read-out: t1/2, buffer + cysteine (50×) (converted)
Experimental: (§1) The compounds were solubilized at a concentration of 100 µM (starting from a 10 mM stock solution in DMSO) in 0.1 M PBS, pH = 7.4, in the absence or presence of 5 mM L-cysteine (50×). The solutions were incubated at 37.0 ± 0.5 °C, and at appropriate time intervals, aliquots were analyzed by RP-HPLC as described below. All experiments were performed at least in triplicate.
(§2) RP-HPLC analysis was performed with an HP 1100 chromatograph system (Agilent Technologies, Palo Alto, CA, USA) equipped with an injector (Rheodyne, Cotati, CA, USA), a quaternary pump (model G1311A), a membrane degasser (model G1379A), and a diode-array detector (DAD, model G1315B) integrated into the HP1100 system. The data were processed using an HP ChemStation system (Agilent Technologies, Palo Alto, CA, USA). A stationary phase Tracer Excel 120 ODSB (25 × 0.46, 5 μm; Tecnokroma (Teknokroma Analytical S.A., Barcelona, Spain)) was used. The mobile phase consisted of acetonitrile 0.1% HCOOH/water 0.1% HCOOH at a flow rate of 1.0 mL/min, with gradient elution: 35% acetonitrile up to 5 min, 35 to 80% acetonitrile between 5 and 10 min, 80% acetonitrile between 10 and 20 min. The injection volume was 20 μL. The column effluent was monitored for each compound at the wavelength of maximum absorption (referenced against a 700 nm wavelength). Using this RP-HPLC procedure, we separated the compounds from any degradation products and we quantified the compounds during incubation time. The quantification was performed using a calibration curve obtained with standard solutions of compounds chromatographed under the same experimental conditions, in a concentration range of 1–100 μM (r^2 > 0.99).

[2] = Stability of the compounds in human serum (RP-HPLC); format: in vitro ADME; settings: 37 °C; for % Compd ± SE: 200 µM; for half-life at 200 µM: male, read-out: Half-life (t1/2)
Experimental: A solution of each compound (10 mM) in DMSO was added to human serum (obtained by filtration and sterilization from AB, Sigma-Aldrich (Merck KGaA, 64,271 Darmstadt, Germany) male human blood) and was preheated to 37 °C to obtain a final concentration of 200 µM. The resulting solution was incubated at 37.0 ± 0.5 °C, and aliquots of 300 µL were taken at appropriate time intervals and added to 300 µL of CH3CN acidified with 0.1% formic acid in order to deproteinize the serum. The mixture was centrifuged for 10 min at 2150× g, and the clear supernatant was filtered (PTFE filters, 0.45 µm, VWR (VWR International S.r.l., Milano, Italy)) and analyzed by RP-HPLC as described below. All experiments were performed at least in triplicate.
as §2

[3] = Stability at pH 7.4 in phosphate buffer (PBS); format: physicochemical; settings: PBS pH 7.4, 37 °C
Experimental: as §1, §2

[4] = tested on: rat aorta strips; assay: Vasodilating activity on endothelium-denuded rat aorta strips precontracted with KCl; format: cell-based; settings: for EC50: endothelium-denuded rat aorta strips precontracted with 25 mM KCl, read-out: Vasodilating activity EC50 ± SEM; for Effect of glibenclamide on the concentration-response curve / EC50: presence vs absence of K+ATP channel blocker glibenclamide; for activation at 300 µM / activation at 10 µM / activation at 100 µM: rat aorta strips precontracted with KCl, read-out: % Vasodilation at the maximum concentration testable
Experimental: Vasodilating activity was studied on the thoracic aortas from male Wistar rats (180–200 g), following a protocol published elsewhere. All synthesized compounds were dissolved in DMSO. The addition of the vehicle had no perceptible consequence on contraction level. Results were expressed as EC50 ± SE (μM), n = 3–8.
The vasodilator action of H2S-releasing compounds was evaluated on endothelium-denuded rat aorta strips precontracted with KCl. The results reported in Table 1 show the heterogeneous behavior of the tested compounds.

[5] = tested on: endothelium-intact rat aortic rings; assay: Vasoprotection: acetylcholine-induced relaxation in rat aortic rings with endothelium impairment induced by pyrogallol; format: cell-based
Experimental: The experiments were performed on rat thoracic aortic rings from male Wistar rats (180–200 g), prepared as previously described. The effect of H2S donor or catechin, taken as a reference, on acetylcholine-induced relaxation in aortic rings pre-incubated with pyrogallol was studied as published elsewhere, with some modifications. Aortic rings were incubated with diethyldithiocarbamate (DETCA) 10 mM for 1 h to irreversibly inactivate endogenous superoxide dismutase (SOD). Then, the aortic rings were washed and randomly divided into four groups: (1) control: endothelium-intact rings incubated in Krebs’ solution with vehicle only (DMSO); (2) H2S donor: endothelium-intact rings incubated with H2S donor (100 μM) or reference catechin (10 mM) for 30 min; (3) pyrogallol: endothelium-intact rings incubated with 500 μM pyrogallol for 15 min; (4) H2S donor plus pyrogallol: endothelium-intact rings incubated with H2S donor (100 μM) or reference catechin (10 mM) for 30 min and 500 μM pyrogallol for the last 15 min. After the incubation time, the rings were washed, 1 μM phenylephrine was added to the organ baths, then acetylcholine (10^−9–l0^−5 M) was added cumulatively. Tension was measured and calculated as the percentage of contraction in response to phenylephrine (1 μM). Data were expressed as mean ± SEM, n = 3–9.
Figure 3 Effect of 6 (100 μM) on acetylcholine-induced vasodilation in endothelium-intact rat aortic rings. […] Statistical analyses were made using Student’s t-test for unpaired data. ** p < 0.01 vs. the pyrogallol group.

SMILES	Stability (% compound ± SE), buffer + cysteine (50×) ([1]; 1 h) [%]	Stability (% compound ± SE), buffer + cysteine (50×) ([1]; 24 h) [%]	% Compd ± SE ([2]; 1 h) [%]	% Compd ± SE ([2]; 4 h) [%]	% Compd ± SE ([2]; 24 h) [%]	Stability (% compound ± SE), buffer ([3]; 24 h) [%]	half-life at 200 µM [2] [h]	other results
C=CCSSCCC(=O)O [Compound 3]	–	–	80.0 ± 1.0	62 ± 2	44 ± 1	101.0 ± 1.0	–	half-life at 100 µM [1]: ~0.167 h
C=CCSSCCC(=O)OCC [Compound 4]	–	–	–	–	–	–	< 0.5	% Vasodilation at the maximum concentration testable, + Glib. 10 μM ([4]; 100 μM, in the presence of glibenclamide 10 μM): [44 ± 3] ^2%; EC50 [4]: 64 ± 6 µM; Effect of glibenclamide on the concentration-response curve / EC50 [4]: significantly rightward shifted
O=C(O)c1ccc(-c2ssc(=S)c2-c2ccccc2)cc1 [Compound 9]	98.6 ± 0.3	78.1 ± 0.3	94.2 ± 0.2	90.0 ± 0.8	83 ± 1	92.6 ± 0.8	–	EC50 [4]: 78 ± 7 µM; Effect of glibenclamide on the concentration-response curve / EC50 [4]: significantly rightward shifted; Stability (% compound ± SE), buffer + cysteine (50×) ([1]; 6 h): 94.9 ± 0.7%
COC(=O)c1ccc(-c2ssc(=S)c2-c2ccccc2)cc1 [Compound 10]	–	–	–	–	–	–	2.4	activation at 10 µM [4]: 29%
CCOC(=O)c1ccc(-c2cssc2=S)cc1 [Compound 12]	–	–	–	–	–	–	2.7	Effect of glibenclamide on the concentration-response curve / EC50 [4]: almost the same
O=C(O)COc1ccc(-c2cc(=S)ss2)cc1 [Compound 13]	99.0 ± 0.4	81.9 ± 0.1	99.2 ± 0.1	96.0 ± 0.8	94.3 ± 2	101.8 ± 1.4	–	activation at 100 µM ([4]; 100 μM): 39%; Stability (% compound ± SE), buffer + cysteine (50×) ([1]; 6 h): 96.6 ± 0.1%
O=C(O)c1csc(=S)s1 [Compound 15]	100.0 ± 0.2	96.6 ± 1.0	99.2 ± 0.1	95 ± 1	94.8 ± 2	100.0 ± 1.0	–	activation at 300 µM [4]: 17%
COC(=O)c1csc(=S)s1 [Compound 16]	–	–	–	–	–	–	1.5	activation at 100 µM ([4]; 100 μM): 25%
COC(=O)c1ccc(C(N)=S)cc1 [Compound 18]	–	–	–	–	–	–	3.7	activation at 10 µM [4]: 33%
O.Oc1cc(O)c2c(c1)O[C@H](c1ccc(O)c(O)c1)[C@@H](O)C2 [catechin, reference compound]	–	–	–	–	–	–	–	Ach-induced maximal relaxation ([5]; rings incubated with catechin 10 mM and 500 μM pyrogallol): 77 ± 3%
Oc1cccc(O)c1O [pyrogallol, reference compound]	–	–	–	–	–	–	–	Maximum Ach-induced relaxation ([5]; rings incubated with 500 μM pyrogallol alone for 15 min (control 80 ± 3%)): 15 ± 3%

Now from value to compound, other results behind:

Stability (% compound ± SE), buffer + cysteine (50×) ([1]; 1 h) [%]	Stability (% compound ± SE), buffer + cysteine (50×) ([1]; 24 h) [%]	% Compd ± SE ([2]; 1 h) [%]	% Compd ± SE ([2]; 4 h) [%]	% Compd ± SE ([2]; 24 h) [%]	Stability (% compound ± SE), buffer ([3]; 24 h) [%]	half-life at 200 µM [2] [h]	SMILES	other results
87.3 ± 1.0	69.5 ± 1.0	88 ± 1	35 ± 1	8.0 ± 0.5	91.5 ± 1.0	–	C=CCSCC(NC(C)=O)C(=O)O (stereo not shown) [Compound 1]	Stability (% compound ± SE), buffer + cysteine (50×) ([1]; 6 h): 72.5 ± 1.0%
–	–	64 ± 1	39 ± 1	16 ± 1	87.7 ± 1.0	–	C=CCSSCC(NC(C)=O)C(=O)O (stereo not shown) [Compound 5]	activation at 300 µM [4]: 16%; half-life at 100 µM [1]: ~0.0833 h
–	–	19.8 ± 0.7	0	0	57.1 ± 3.3	–	O=C(O)CCC(=O)NSC(=O)c1ccccc1 [Compound 7]	activation at 300 µM [4]: 12%; half-life at 100 µM [1]: ~1.3 h; Stability (% compound ± SE), buffer ([3]; 6 h): 91.6 ± 1.1%
–	–	–	–	–	–	< 0.5	CC(=O)NSC(=O)c1ccccc1 [Compound 8]	Effect of glibenclamide on the concentration-response curve / EC50 [4]: almost the same; Ach-induced maximum relaxation ([5]; H2S donor 100 μM without exposure to pyrogallol): did not reduce Ach-induced maximum relaxation; Ach-induced maximal relaxation ([5]; rings incubated with H2S donor 100 μM 30 min and 500 μM pyrogallol last 15 min): not able to reduce pyrogallol-induced endothelium impairment
99.0 ± 0.3	37.6 ± 0.1	96.3 ± 0.2	90.0 ± 0.9	53 ± 2	94.8 ± 3.2	–	O=C(O)c1ccc(-c2cssc2=S)cc1 [Compound 11]	activation at 100 µM ([4]; 100 μM): 42%; Stability (% compound ± SE), buffer + cysteine (50×) ([1]; 6 h): 82.6 ± 0.2%
–	–	–	–	–	–	0.5	CCOC(=O)COc1ccc(-c2cc(=S)ss2)cc1 [Compound 14]	activation at 10 µM [4]: 37%
97.6 ± 0.2	25.0 ± 0.6	91.6 ± 0.3	85.0 ± 0.1	64.7 ± 0.2	82.3 ± 0.4	–	NC(=S)c1ccc(C(=O)O)cc1 [Compound 17]	activation at 300 µM [4]: 27%; Stability (% compound ± SE), buffer + cysteine (50×) ([1]; 6 h): 84.1 ± 0.2%
